Results from PubChem BioAssay AID608 (Sanford-Burnham Center for Chemical Genomics, 2007).
The source made the active and inactive calls. The rule behind the calls is not given here.

Target: Peptidyl-prolyl cis-trans isomerase FKBP1A (Homo sapiens) (UniProt P62942)
Experiment: small-molecule binding to FKBP12 – biophysical, NMR detection (AID 608)
Details: purified FKBP12

Peptidyl-prolyl cis-trans isomerase FKBP1A (Homo sapiens), sequence (P62942 whole entry, looked up): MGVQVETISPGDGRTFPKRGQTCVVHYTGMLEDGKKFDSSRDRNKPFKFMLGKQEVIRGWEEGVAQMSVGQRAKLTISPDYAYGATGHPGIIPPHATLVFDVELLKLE

## CC(=O)Nc1cccc(-c2n[nH]c(=S)n2C)c1
  Kd: > 4 mM (inactive)

## OCc1ccncc1
  Kd: > 4 mM (inactive)

## Nc1ccc(NC(=O)c2ccco2)c(Cl)c1
  Kd: > 4 mM (inactive)

## C=CCNC(=O)c1ccc(Cl)cc1Cl
  Kd: > 4 mM (inactive)

## O=c1cccc2n1CC1CC2CN2CCCC[C@@H]12 (some centres undefined)
  Kd: > 4 mM (inactive)

## Cc1occc1C(=O)N1CCN(S(C)(=O)=O)CC1
  Kd: > 4 mM (inactive)

## O=C(c1ccc(F)cc1)N1CCN(c2ncccn2)CC1
  Kd: > 4 mM (inactive)

## Cc1ccc2[nH]cc(CCN)c2c1
  Kd: > 4 mM (inactive)

## COc1c2c(c(CC=C(C)C)c3oc(=O)c(-c4ccc(O)cc4)c(O)c13)OC(C)(C)C=C2
  Kd: > 4 mM (inactive)

## O=C(NCc1ccccc1)c1cnsn1
  Kd: > 4 mM (inactive)

## O=C(O)C1CCCCN1Cc1ccccc1 (centres undefined)
  Kd: > 4 mM (inactive)

## O=C(O)c1ccc(-n2cncn2)cc1
  Kd: > 4 mM (inactive)

## Oc1ccccc1N1CCOCC1
  Kd: > 4 mM (inactive)

## CCOc1nc(C)ccc1-c1noc(-c2ccco2)n1
  Kd: > 4 mM (inactive)

## Cn1c(=O)[nH]c2nc[nH]c2c1=O
  Kd: > 4 mM (inactive)

## O=S1(=O)CCC(NC(=S)Nc2ccccn2)C1 (centres undefined)
  Kd: > 4 mM (inactive)

## Cc1ccc(NS(=O)(=O)c2ccc(OCC(=O)N3CCOCC3)cc2)cc1
  Kd: inactive

## O=C(O)c1cccc(-n2cccc2)c1
  Kd: > 4 mM (inactive)

## COCCOc1nc2ccccc2nc1C
  Kd: > 4 mM (inactive)

## CC(C)CNc1cc(=O)n(C)c(=O)n1C
  Kd: > 4 mM (inactive)

## Cc1ccc(/C=N/NC(N)=O)o1
  Kd: > 4 mM (inactive)

## C/C(O)=c1/sc2cc(C)nc(=N)n2c1=O
  Kd: > 4 mM (inactive)

## Cc1cc(C)n(-c2nncn2N)n1
  Kd: > 4 mM (inactive)

## Cc1cc(C)c2nncn2n1
  Kd: > 4 mM (inactive)

## CCCCCCCCCCCCCCCCCCOCC(O)CO (centres undefined)
  Kd: > 4 mM (inactive)

## O=C(O)c1ncoc1-c1ccccc1
  Kd: > 4 mM (inactive)

## CN1CCn2c1nc(N1CCCCC1)nc2=O
  Kd: > 4 mM (inactive)

## Cc1ccn(S(=O)(=O)c2ccc(F)cc2)n1
  Kd: > 4 mM (inactive)

## COC1=CC(=O)C(O)=C/C1=C\C=C\c1ccccc1
  Kd: > 4 mM (inactive)

## c1ccc(C[N+]23CCN(CC2)c2ccccc23)cc1
  Kd: > 4 mM (inactive)

## O=C(O)c1cc2ccccc2[nH]1
  Kd: > 4 mM (inactive)

## CC(C)=CCC1=C(O)c2ccccc2C(=O)C1=O
  Kd: > 4 mM (inactive)

## Cc1ccc2cccc(SCC(=O)N3CCOCC3)c2n1
  Kd: inactive

## NC(=O)CN1CCCCCC1=O
  Kd: > 4 mM (inactive)

## NC(=O)Cn1nc(-c2ccco2)ccc1=O
  Kd: > 4 mM (inactive)

## Nc1nc(-c2ccc(O)cc2)cs1
  Kd: > 4 mM (inactive)

## Cc1noc(C)c1C(=O)Nc1ccccc1-c1ccccc1
  Kd: > 4 mM (inactive)

## O=C(O)CN1C(=O)c2ccc(C(=O)O)cc2C1=O
  Kd: > 4 mM (inactive)

## O=C(O)CC[N+](=O)[O-]
  Kd: > 4 mM (inactive)

## CN=C1SC(CC(=O)Nc2ccc(O)cc2)C(=O)N1C (centres undefined)
  Kd: > 4 mM (inactive)

## COC(=O)CC1C(C)(C)C(OC(C)=O)[C@@H]2[C@@H](OC(C)=O)[C@]34O[C@@]2(O)[C@]1(C)C3CC[C@]1(C)C4=CC(=O)O[C@H]1c1ccoc1 (some centres undefined)
  Kd: > 4 mM (inactive)

## O=C1CCC(c2cccs2)=NN1
  Kd: > 4 mM (inactive)

## C[C@H]1OC(O[C@H]2[C@@H](O)CC(O[C@H]3[C@@H](O)C[C@H](O[C@H]4CC[C@]5(C)C6CC[C@]7(C)[C@@H](C8=CC(=O)OC8)[C@@H](O)C[C@]7(O)[C@@H]6CC[C@@H]5C4)O[C@@H]3C)O[C@@H]2C)C[C@H](O)C1O (some centres undefined)
  Kd: > 4 mM (inactive)

## NCc1ccc2c(c1)OCCCO2
  Kd: > 4 mM (inactive)

## Cc1noc(C)c1CSc1nc2ccccc2[nH]1
  Kd: 0.157 mM

## NS(=O)(=O)c1ccc2c3c(cccc13)C(=O)N2
  Kd: > 4 mM (inactive)

## Nc1cc(C(F)(F)F)ccc1N1CCOCC1
  Kd: > 4 mM (inactive)

## O=C1CSC2=NCCCN12
  Kd: > 4 mM (inactive)

## CC(C)CCCC(C)[C@H]1CCC2C3CC=C4CC(=O)CC[C@]4(C)C3CC[C@@]21C (some centres undefined)
  Kd: > 4 mM (inactive)

## COC(=O)c1ccc2nc[nH]c2c1
  Kd: > 4 mM (inactive)

## OCc1ncoc1-c1ccccc1
  Kd: > 4 mM (inactive)

## O=c1c(-c2ccco2)[n+]([O-])c2ccccc2n1O
  Kd: > 4 mM (inactive)

## Cc1nnc(NCc2ccc3c(c2)OCO3)[nH]c1=O
  Kd: > 4 mM (inactive)

## CCOC(=O)Nc1ccc2c(C)cc(=O)oc2c1
  Kd: > 4 mM (inactive)

## NC(=S)NC1CCS(=O)(=O)C1 (centres undefined)
  Kd: > 4 mM (inactive)

## NC(=O)C1CCN(C(=S)Nc2ccccc2)CC1
  Kd: > 4 mM (inactive)

## C=CC(C1=CC(=O)C=CC1=O)c1ccccc1 (centres undefined)
  Kd: > 4 mM (inactive)

## O=C(Nc1nncs1)c1c(F)cccc1F
  Kd: > 4 mM (inactive)

## O=C(O)C1CSC(c2ccccc2)N1 (centres undefined)
  Kd: > 4 mM (inactive)
